# Assay results taken from US8889423B2, “Method for analysis of compound-binding ability of protein” (Eisai R & D Management Co., Ltd., priority 2005, dated 2014).
# Assays:
# [1] = molecular target: T1, AHCY (S-adenosylhomocysteine hydrolase) (Homo sapiens, UniProt P23526); assay: Affinity chromatography on immobilized compound with urea step elution, LC/MS peak intensity ratio; format: binding; conditions: for peak intensity ratio (peak area of the labeled protein/peak area of the non-labeled protein): HCT116 extract
# T1 construct: Insoluble fractions were removed by centrifugation to prepare soluble fractions; endogenous in cells; host or cells: HCT116
# T1 sequence (P23526 2-432 limits assumed): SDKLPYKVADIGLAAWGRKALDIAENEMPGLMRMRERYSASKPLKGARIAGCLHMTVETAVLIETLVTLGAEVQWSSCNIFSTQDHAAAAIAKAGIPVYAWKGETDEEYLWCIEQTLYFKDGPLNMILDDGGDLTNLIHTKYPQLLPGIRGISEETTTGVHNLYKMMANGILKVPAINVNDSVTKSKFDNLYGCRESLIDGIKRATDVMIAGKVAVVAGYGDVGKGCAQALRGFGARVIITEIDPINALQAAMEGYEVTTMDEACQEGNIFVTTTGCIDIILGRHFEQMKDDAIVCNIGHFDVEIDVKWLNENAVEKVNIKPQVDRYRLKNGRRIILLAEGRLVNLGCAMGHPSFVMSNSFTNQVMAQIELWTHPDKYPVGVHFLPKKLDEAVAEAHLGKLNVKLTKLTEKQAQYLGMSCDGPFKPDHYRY
# Experimental: (§1) About 10 mg of the compound represented by formula (1):
# (§2) [drawing 1] was dissolved in 4 mL of tetrahydrofuran (THF) and 4 mL of methanol (MeOH), and 4 mL of water was added thereto.
# (§3) 6 mL of the resultant solution was diluted with 18 mL of THF/MeOH/Water=1/1/1 (v/v/v), and was added to 25 mL of Affi-gel 10 (produced by BioRad, Cat No. 153-6099), which had been washed with THF/MeOH/Water=1/1/1 (v/v/v) beforehand.
# (§4) To the resultant substance, 100 μL of triethylamine (produced by Tokyo Chemical Industry Co., Ltd., Cat No. T0424) was added thereto and incubated at room temperature for 2 hours. Then, 500 μL of 2-aminoethanol (produced by Tokyo Chemical Industry Co., Ltd., Cat No. A0297) was added thereto and incubated at room temperature for 2 hours. The resultant gel was fully washed with THF/MeOH/Water=1/1/1 (v/v/v), and was stored at 4° C. after replacement with a methanol solution. The resultant gel was set to be used as an affinity gel. By this reaction, the compound represented by formula (1) was bound at a ratio of about 0.2 mg for 1 mL of gel. A column was filled with about 0.9 ml of the produced affinity gel. Thus, an affinity chromatography column was produced.
# (§5) Human colon glandular cancer cell line HCT116 (ATCC) was cultured. Used as a medium was RPMI-1640 (Sigma, R-7130) containing 10% fetal calf serum (MOREGATE, BATCH 32300102), 100 U/ml of penicillin G; and 100 μg/ml of streptomycin (Invitrogen, 15140-122). As for the RPMI-1640 medium, a powder medium which contains none of L-glutamine, L-lysine, L-methionine, L-leucine, and sodium hydrogen carbonate was selected. Then, components absent in the medium were added. The absent components were added as follows. L-glutamine (produced by Sigma, G-8540), L-lysine (produced by Sigma, L-9037), L-methionine (produced by Sigma, M-5308), and sodium hydrogen carbonate (Wako Pure Chemical Industries, Ltd., 191-01305) were added in 0.3 g/L, 0.04 g/L, 0.015 g/L, and 2 g/L, respectively; and then naturally-occurring L-leucine and L-leucine labeled with a stable isotope ^13C (six) (Cambridge Isotope Laboratories, CLM-2262) were separately added in 0.05 g/L. Each medium thus prepared was used to culture cells in 5% CO2 at 37° C. The cells obtained by such culturing were used in the following tests as cells cultured in a naturally-occurring medium and cells cultured in a stable isotope medium, respectively.
# (§6) Cells cultured in the naturally-occurring medium were provided in an amount corresponding to ten 15-cm diameter plates. Cells cultured in the stable isotope medium were provided in an amount corresponding to ten 15-cm diameter plates. The cells were collected. The cells were solubulized with about 2 ml of M-PER (PIERCE, 78501) per 15-cm diameter plate. Insoluble fractions were removed by centrifugation to prepare soluble fractions. The soluble fractions thus obtained were set to be used as a protein extract liquid metabolically labeled with a stable isotope and a protein extract liquid not metabolically labeled with a stable isotope, respectively. To these protein extract liquids (about 20 ml each), a quadruple amount of PBS was added (final amount: about 100 ml each).
# (§7) Next, about 0.9 ml of affinity gel was put into an open column, and a diluted protein extract liquid metabolically labeled with a stable isotope was added to the open column from above and was naturally dropped. Then, 10 ml of PBS containing 1 M NaCl was flown to this column. Next, 7 ml of PBS containing 1 M urea and 0.01% CHAPS, 7 ml of PBS containing 2 M urea and 0.01% CHAPS, 7 ml of PBS containing 4 M urea and 0.01% CHAPS, and 7 ml of PBS containing 8 M urea and 0.01% CHAPS were sequentially flown, and the eluted fractions were collected (4 fractions in total).
# (§8) In parallel with the above operation, a diluted protein extract liquid not metabolically labeled with a stable isotope was added to 0.9 ml of affinity gel from above and was naturally dropped. Then, 10 ml of PBS containing 1 M NaCl was flown to this column. […]
# [2] = molecular target: T2, MTAP (5′-methylthioadenosine phosphorylase) (Homo sapiens, UniProt Q13126); assay: as above; format: binding; conditions: for peak intensity ratio (peak area of the labeled protein/peak area of the non-labeled protein): HCT116 extract
# T2 construct: Insoluble fractions were removed by centrifugation to prepare soluble fractions; endogenous in cells; host or cells: HCT116
# T2 sequence (Q13126 1-283): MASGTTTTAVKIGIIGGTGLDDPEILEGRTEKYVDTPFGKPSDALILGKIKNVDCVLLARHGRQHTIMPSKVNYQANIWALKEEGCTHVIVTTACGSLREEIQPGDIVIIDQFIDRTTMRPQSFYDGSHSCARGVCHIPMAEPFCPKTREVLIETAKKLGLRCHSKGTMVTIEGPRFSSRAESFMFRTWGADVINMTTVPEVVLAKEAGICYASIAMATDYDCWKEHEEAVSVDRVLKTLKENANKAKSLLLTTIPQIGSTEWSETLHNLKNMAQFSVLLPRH
# Experimental: as §1, §2, §3, §4, §5, §6, §7, §8
# [3] = molecular target: T3, PCMT1 (protein-L-isoaspartate (D-aspartate) O-methyltransferase) (Homo sapiens, UniProt P22061); assay: as above; format: binding; conditions: for peak intensity ratio (peak area of the labeled protein/peak area of the non-labeled protein): HCT116 extract
# T3 construct: Insoluble fractions were removed by centrifugation to prepare soluble fractions; endogenous in cells; host or cells: HCT116
# Experimental: as §1, §2, §3, §4, §5, §6, §7, §8
# [4] = molecular target: T4, SPRY4 (sprouty homolog 4) (Homo sapiens, UniProt Q9C004); assay: as above; format: binding; conditions: for peak intensity ratio (peak area of the labeled protein/peak area of the non-labeled protein): HCT116 extract
# T4 construct: Insoluble fractions were removed by centrifugation to prepare soluble fractions; endogenous in cells; host or cells: HCT116
# T4 sequence (Q9C004 1-299): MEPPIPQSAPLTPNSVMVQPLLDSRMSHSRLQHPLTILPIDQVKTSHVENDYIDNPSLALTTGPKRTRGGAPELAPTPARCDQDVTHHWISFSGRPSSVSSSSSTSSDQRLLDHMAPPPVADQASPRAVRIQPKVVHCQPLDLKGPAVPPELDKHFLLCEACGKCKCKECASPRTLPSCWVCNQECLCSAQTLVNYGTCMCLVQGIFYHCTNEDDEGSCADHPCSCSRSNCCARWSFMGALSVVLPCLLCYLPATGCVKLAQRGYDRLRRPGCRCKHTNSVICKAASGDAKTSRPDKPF
# Experimental: as §1, §2, §3, §4, §5, §6, §7, §8
# [5] = tested on: OS9 (amplified in osteosarcoma isoform 1-4 precursor); assay: as above; format: binding, Human; conditions: for peak intensity ratio (peak area of the labeled protein/peak area of the non-labeled protein): HCT116 extract
# Experimental: as §1, §2, §3, §4, §5, §6
# Next, about 0.9 ml of affinity gel was put into an open column, and a diluted protein extract liquid metabolically labeled with a stable isotope was added to the open column from above and was naturally dropped. Then, 10 ml of PBS containing 1 M NaCl was flown to this column. […]
# [6] = tested on: proteins of HCT116 cell extract (AHCY, PCMT1, OS9, SPRY4); assay: Ranking of binding ability of proteins to the immobilized compound; parameters: species or system Human; conditions: from highest-peak fraction and from ratios in the 8 M urea fraction
# Experimental: as §7
# In parallel with the above operation, a diluted protein extract liquid not metabolically labeled with a stable isotope was added to 0.9 ml of affinity gel from above and was naturally dropped. Then, 10 ml of PBS containing 1 M NaCl was flown to this column. Next, 12 ml of PBS containing 8 M urea and 0.01% CHAPS was flown, and the eluted fractions were collected to be used as an internal standard fraction.
# 3 ml of the internal standard fraction was added to each of the four fractionated samples and mixed together. […]
# Quantitation was to be performed at the peak of the peptides containing leucine. […] Peaks forming a pair were found, and the peak intensity ratio thereof was automatically calculated. In this manner, proteins were identified and the peak intensity ratio was calculated using the constructed software. […]
# T3 sequence (P22061 whole entry): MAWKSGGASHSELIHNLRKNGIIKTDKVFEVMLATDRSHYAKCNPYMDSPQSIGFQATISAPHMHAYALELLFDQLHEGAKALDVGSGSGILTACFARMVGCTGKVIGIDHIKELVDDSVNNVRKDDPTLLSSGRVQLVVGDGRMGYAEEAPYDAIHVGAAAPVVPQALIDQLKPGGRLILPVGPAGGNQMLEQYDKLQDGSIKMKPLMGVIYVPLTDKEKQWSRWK
compound,measurement,setting,value
NCc1ccc(S(=O)(=O)Nc2cccc3c(Cl)c[nH]c23)cc1 [formula (1)],peak intensity ratio (peak area of the labeled protein/peak area of the non-labeled protein),[1]; 1M Urea fraction,0.63
same,peak intensity ratio (peak area of the labeled protein/peak area of the non-labeled protein),[1]; 2M Urea fraction,0.99
same,peak intensity ratio (peak area of the labeled protein/peak area of the non-labeled protein),[1]; 4M Urea fraction,1.88
same,peak intensity ratio (peak area of the labeled protein/peak area of the non-labeled protein),[1]; 8M Urea fraction,3.27
same,fraction with the highest peak,"[1]; elution with 1, 2, 4, 8 M urea",8 M urea fraction
same,peak intensity ratio (peak area of the labeled protein/peak area of the non-labeled protein),[2]; 1M Urea fraction,0.77
same,peak intensity ratio (peak area of the labeled protein/peak area of the non-labeled protein),[2]; 2M Urea fraction,0.78
same,peak intensity ratio (peak area of the labeled protein/peak area of the non-labeled protein),[2]; 4M Urea fraction,0.71
same,peak intensity ratio (peak area of the labeled protein/peak area of the non-labeled protein),[2]; 8M Urea fraction,0.88
same,peak intensity ratio,[2]; all the four urea fractions,about 0.8
same,peak intensity ratio (peak area of the labeled protein/peak area of the non-labeled protein),[3]; 1M Urea fraction,1.14
same,peak intensity ratio (peak area of the labeled protein/peak area of the non-labeled protein),[3]; 2M Urea fraction,1.57
same,peak intensity ratio (peak area of the labeled protein/peak area of the non-labeled protein),[3]; 4M Urea fraction,2.52
same,peak intensity ratio (peak area of the labeled protein/peak area of the non-labeled protein),[3]; 8M Urea fraction,1.02
same,fraction with the highest peak,"[3]; elution with 1, 2, 4, 8 M urea",4 M urea fraction
same,peak intensity ratio (peak area of the labeled protein/peak area of the non-labeled protein),[4]; 1M Urea fraction,3.70
same,peak intensity ratio (peak area of the labeled protein/peak area of the non-labeled protein),[4]; 2M Urea fraction,1.17
same,peak intensity ratio (peak area of the labeled protein/peak area of the non-labeled protein),[4]; 4M Urea fraction,0.83
same,peak intensity ratio (peak area of the labeled protein/peak area of the non-labeled protein),[4]; 8M Urea fraction,0.67
same,fraction with the highest peak,"[4]; elution with 1, 2, 4, 8 M urea",1 M urea fraction
same,peak intensity ratio (peak area of the labeled protein/peak area of the non-labeled protein),[5]; 1M Urea fraction,1.24
same,peak intensity ratio (peak area of the labeled protein/peak area of the non-labeled protein),[5]; 2M Urea fraction,3.57
same,peak intensity ratio (peak area of the labeled protein/peak area of the non-labeled protein),[5]; 4M Urea fraction,1.62
same,peak intensity ratio (peak area of the labeled protein/peak area of the non-labeled protein),[5]; 8M Urea fraction,0.73
same,fraction with the highest peak,"[5]; elution with 1, 2, 4, 8 M urea",2 M urea fraction
same,"binding ability of the proteins to the compound, ordered from highest to lowest",[6],"AHCY, PCMT1, OS9 and SPRY4"
